{
  "source": "patent US8318778B2",
  "about": "“Urea glucokinase activators” (Novo Nordisk A/S, priority 2007, dated 2012)",
  "target": "T1, recombinant human glucokinase (Homo sapiens, UniProt P35557)",
  "T1 construct": "N-terminal His-tag ((His)8-VEQILA . . . Q466); made in house; host or cells: E. coli",
  "T1 sequence (P35557 17-466 isoform P35557-2)": "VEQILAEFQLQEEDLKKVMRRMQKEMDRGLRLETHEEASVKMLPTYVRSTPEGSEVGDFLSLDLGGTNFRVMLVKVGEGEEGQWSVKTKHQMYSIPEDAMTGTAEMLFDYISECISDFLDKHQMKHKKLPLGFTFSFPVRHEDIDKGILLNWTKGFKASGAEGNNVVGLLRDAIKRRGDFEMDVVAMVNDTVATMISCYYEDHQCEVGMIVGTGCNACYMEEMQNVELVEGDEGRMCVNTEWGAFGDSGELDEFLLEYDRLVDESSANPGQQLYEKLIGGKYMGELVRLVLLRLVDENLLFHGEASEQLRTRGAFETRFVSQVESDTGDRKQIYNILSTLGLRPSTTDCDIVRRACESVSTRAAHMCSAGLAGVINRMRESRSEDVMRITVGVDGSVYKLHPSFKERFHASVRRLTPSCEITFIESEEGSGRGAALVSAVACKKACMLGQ",
  "test": "Glucokinase Activity Assay (I): spectrometric assay coupled to glucose 6-phosphate dehydrogenase",
  "format": "biochemical",
  "conditions": "15 mM glucose",
  "method": "Glucokinase activity is assayed spectrometrically coupled to glucose 6-phosphate dehydrogenase to determine compound activation of glucokinase. The final assay contains 50 mM Hepes, pH 7.1, 50 mM KCl, 5 mM MgCl2, 2 mM dithiothreitol, 0.6 mM NADP, 1 mM ATP, 0.195 μM G-6-P dehydrogenase (from Roche, 127 671), 15 nM recombinant human glucokinase.\nThe purification of His-tagged human glucokinase (hGK) was performed as follows: The cell pellet from 50 ml E. coli culture was resuspended in 5 ml extraction buffer A (25 mM HEPES, pH 8.0, 1 mM MgCl2, 150 mM NaCl, 2 mM mercaptoethanol) with addition of 0.25 mg/ml lysozyme and 50 μg/ml sodium azide. […]\nThe compound to be tested is added into the well in final 2.5% DMSO concentration in an amount sufficient to give a desired concentration of compound, for instance 1, 5, 10, 25 or 50 μM. […] The plate is incubated at 25° C. for 5 min and kinetics is measured at 340 nm in SpectraMax every 30 seconds for 5 minutes. Results for each compound are expressed as the fold activation of the glucokinase activity compared to the activation of the glucokinase enzyme in an assay without compound after having been subtracted from a “blank”, which is without glucokinase enzyme and without compound. […]\nThe glucose sensitivity of the compounds are measured at a compound concentration of 10 μM and at glucose concentrations of 5 and 15 mM.",
  "data": [
    {"smiles": "C[C@H]1CC[C@H](N(CC(F)(F)c2ccccc2)C(=O)Nc2ncc(SCC(=O)O)s2)CC1", "note": "[Example 83, {2-[3-(2,2-Difluoro-2-phenyl-ethyl)-3-(trans-4-methyl-cyclohexyl)-ureido]-thiazol-5-ylsulfanyl}-acetic acid]", "values": [
      {"measurement": "EC50", "result": 289, "unit": "nM"},
      {"measurement": "FA (15 mM)", "setting": "fold activation of glucokinase activity vs assay without compound", "result": 2.1}
    ]}
  ]
}
